Laboratory results reported in PMC10052977, “α,ω-Diacyl-Substituted Analogues of Natural and Unnatural Polyamines: Identification of Potent Bactericides That Selectively Target Bacterial Membranes” (International Journal of Molecular Sciences, 2023).

Tests used:
[1] = system: Staphylococcus aureus ATCC 25923 or ATCC 29213; test: MIC, broth dilution (CA-SFM); type: cell-based; conditions: Staphylococcus aureus ATCC 25923 or ATCC 29213; mean (n = 3); read-out: MIC S. a
[2] = system: Cryptococcus neoformans ATCC208821; test: Antifungal MIC, CO-ADD; type: cell-based
Description: (§1) For the antifungal assay, fungi strains were cultured for 3 days on YPD agar at 30 °C. A yeast suspension of 1 × 10^6 to 5 × 10^6 CFU/mL was prepared from five colonies. These stock suspensions were diluted with yeast nitrogen base (YNB) (Becton Dickinson, 233520) broth to a final concentration of 2.5 × 10^3 CFU/mL. […] Plates were covered and incubated at 35 °C for 36 h without shaking. C. albicans MICs were determined by measuring the absorbance at OD530. […] Fluconazole was used as a positive fungal inhibitor standard for C. albicans and C. neoformans. […] Quality control (QC) of the assays was determined by antimicrobial controls and Z’-factor (using positive and negative controls).

[3] = system: Candida albicans ATCC90028; test: Antifungal MIC, CO-ADD; type: cell-based; conditions: mean (n = 2)
Description: as §1

[4] = system: Klebsiella pneumoniae ATCC700603; test: MIC, CO-ADD broth microdilution; type: cell-based; conditions: mean (n = 2)
MRSA ATCC 43300 = test: MIC, CO-ADD broth microdilution; type: cell-based, Staphylococcus aureus; conditions: for MIC: Staphylococcus aureus, MRSA ATCC 43300, mean (n = 2), read-out: MIC MRSA
[5] = system: Acinetobacter baumannii ATCC19606; test: MIC, CO-ADD broth microdilution; type: cell-based; conditions: mean (n = 2)
[6] = system: Pseudomonas aeruginosa PAO1 or ATCC 27853; test: MIC, broth dilution (CA-SFM); type: cell-based; conditions: mean (n = 3)
human red blood cells = test: Hemolytic assay; type: cell-based; conditions: mean (n = 2)
Description: Human whole blood was washed three times with 3 volumes of 0.9% NaCl and then resuspended in same to a concentration of 0.5 × 10^8 cells/mL, as determined by manual cell count in a Neubauer hemocytometer. The washed cells were then added to the 384-well compound-containing plates for a final volume of 50 μL. After a 10 min shake on a plate shaker, the plates were then incubated for 1 h at 37 °C. After incubation, the plates were centrifuged at 1000× g for 10 min to pellet cells and debris; 25 μL of the supernatant was then transferred to a polystyrene 384-well assay plate. Hemolysis was determined by measuring the supernatant absorbance at […] (OD405). The absorbance was measured using a Tecan M1000 Pro monochromator plate reader. HC10 and HC50 (concentration at 10% and 50% hemolysis, respectively) were calculated by curve fitting the inhibition values vs. log (concentration) using a sigmoidal dose–response function with variable fitting values for top, bottom and slope.

[7] = system: Escherichia coli ATCC 25922; test: MIC, CO-ADD broth microdilution; type: cell-based; conditions: ATCC25922, mean (n = 2)
[8] = Cytotoxicity assay (resazurin); type: cell-based, human; conditions: human; HEK293 cells; mean (n = 2); highest dose tested 32 μg/mL; read-out: Cytotoxicity (concentration of compound at 50% cytotoxicity, IC50)
[9] = ATCC208821, Cryptococcus neoformans ATCC208821, mean (n = 2)

Row | SMILES | MIC [1] [µM] | MIC [2, 9] [µM] | MIC [3] [µM] | MIC [4] [µM] | MIC (MRSA ATCC 43300) [µM] | MIC [5] [µM] | MIC [6] [µM] | MIC [7] [µM] | MIC ([2]; ATCC208821, 36 h, Cryptococcus neoformans ATCC208821, mean (n = 2)) [µM] | MIC ([3]; 36 h) [µM] | Hemolysis (HC10, concentration at 10% hemolytic activity) (human red blood cells) [µM] | IC50 at 20 h [8] [µM] | activity towards MRSA (MRSA ATCC 43300)
1 | O=C(NCCCNCCCCCCCCCCCCNCCCNC(=O)C(c1ccccc1)(c1ccccc1)c1ccccc1)C(c1ccccc1)(c1ccccc1)c1ccccc1.O=C(O)C(F)(F)F.O=C(O)C(F)(F)F [Compound 17f, N^1,N^12-Bis(3-(2,2,2-triphenylacetamido)propyl)dodecane-1,12-diaminium 2,2,2-trifluoroacetate] | 6.25 | < 0.23 | < 0.23 | > 29.5 | < 0.23 | > 29.5 | 300 | > 29.5 | – | – | ≤0.231 | ≤ 0.231 | –
2 | O=C(NCCCNCCCCCCNCCCNC(=O)C(c1ccccc1)(c1ccccc1)c1ccccc1)C(c1ccccc1)(c1ccccc1)c1ccccc1.O=C(O)C(F)(F)F.O=C(O)C(F)(F)F [Compound 17b, N^1,N^6-Bis(3-(2,2,2-triphenylacetamido)propyl)hexane-1,6-diaminium 2,2,2-trifluoroacetate] | 6.25 | < 0.25 | 16 | 32 | < 0.25 | 4 | 300 | 4 | – | – | 6.27 | ≤ 0.25 | –
3 | O=C(CCC(=O)NCCCc1ccccc1)NCCCNCCCCCCCCCCNCCCNC(=O)CCC(=O)NCCCc1ccccc1.O=C(O)C(F)(F)F.O=C(O)C(F)(F)F [Compound 14e, N^1,N^10-Bis(3-(4-oxo-4-((3-phenylpropyl)amino)butanamido)propyl)decane-1,10-diaminium 2,2,2-trifluoroacetate] | 100 | 33.7 | > 33.7 | > 33.7 | 4.21 | > 33.7 | > 200 | 33.7 | – | – | >33.7 | > 33.7 | weak
4 | O=C(NCCCNCCCCCCCNCCCNC(=O)C(c1ccccc1)(c1ccccc1)c1ccccc1)C(c1ccccc1)(c1ccccc1)c1ccccc1.O=C(O)C(F)(F)F.O=C(O)C(F)(F)F [Compound 17c, N^1,N^7-Bis(3-(2,2,2-triphenylacetamido)propyl)heptane-1,7-diaminium 2,2,2-trifluoroacetate] | 12.5 | 15.8 | 15.8 | 31.6 | < 0.25 | 3.95 | 300 | 7.9 | – | – | 8.16 | ≤ 0.247 | –
5 | O=C(CCC(=O)NCCCc1ccccc1)NCCCNCCCCCCCCNCCCNC(=O)CCC(=O)NCCCc1ccccc1.O=C(O)C(F)(F)F.O=C(O)C(F)(F)F [Compound 14d, N^1,N^8-Bis(3-(4-oxo-4-((3-phenylpropyl)amino)butanamido)propyl)octane-1,8-diaminium 2,2,2-trifluoroacetate] | > 100 | > 34.7 | > 34.7 | > 34.7 | > 34.7 | > 34.7 | > 100 | > 34.7 | – | – | >34.7 | > 34.7 | –
6 | O=C(CC(c1ccccc1)(c1ccccc1)c1ccccc1)NCCCNCCCCCCCCCCCCNCCCNC(=O)CC(c1ccccc1)(c1ccccc1)c1ccccc1.O=C(O)C(F)(F)F.O=C(O)C(F)(F)F [Compound 18f, N^1,N^12-Bis(3-(3,3,3-triphenylpropanamido)propyl)dodecane-1,12-diaminium 2,2,2-trifluoroacetate] | 25 | – | – | > 28.8 | < 0.22 | > 28.8 | 300 | > 28.8 | < 0.23 | < 0.23 | ≤0.225 | 0.409 | –
7 | O=C(CCC(=O)NCCC(c1ccccc1)c1ccccc1)NCCCNCCCCCCCCNCCCNC(=O)CCC(=O)NCCC(c1ccccc1)c1ccccc1.O=C(O)C(F)(F)F.O=C(O)C(F)(F)F [Compound 16d, N^1,N^8-Bis(3-(4-((3,3-diphenylpropyl)amino)-4-oxobutanamido)propyl)octane-1,8-diaminium 2,2,2-trifluoroacetate] | 12.5 | > 29.8 | > 29.8 | > 29.8 | ≤ 0.23 | > 29.8 | 300 | > 29.8 | – | – | >29.8 | > 29.8 | –
8 | O=C(CC(c1ccccc1)(c1ccccc1)c1ccccc1)NCCCNCCCCCCCCCCNCCCNC(=O)CC(c1ccccc1)(c1ccccc1)c1ccccc1.O=C(O)C(F)(F)F.O=C(O)C(F)(F)F [Compound 18e, N^1,N^10-Bis(3-(3,3,3-triphenylpropanamido)propyl)decane-1,10-diaminium 2,2,2-trifluoroacetate] | 1.56 | < 0.23 | < 0.23 | > 29.5 | < 0.23 | < 0.23 | 200 | > 29.5 | – | – | ≤0.231 | 7.23 | –
9 | O=C(CCc1ccccc1)NCCCNCCCCCCCCCCNCCCNC(=O)CCc1ccccc1.O=C(O)C(F)(F)F.O=C(O)C(F)(F)F [Compound 13e, N^1,N^10-Bis(3-(3-phenylpropanamido)propyl)decane-1,10-diaminium 2,2,2-trifluoroacetate] | 32 | 41.1 | > 41.1 | > 41.1 | 10.3 | > 41.1 | 642 | 41.1 | – | – | >41.1 | > 41.1 | weak

Now from value to compound, other results behind:

Row | MIC [1] [µM] | MIC [2, 9] [µM] | MIC [3] [µM] | MIC [4] [µM] | MIC (MRSA ATCC 43300) [µM] | MIC [5] [µM] | MIC [6] [µM] | MIC [7] [µM] | MIC ([2]; ATCC208821, 36 h, Cryptococcus neoformans ATCC208821, mean (n = 2)) [µM] | MIC ([3]; 36 h) [µM] | SMILES | Hemolysis (HC10, concentration at 10% hemolytic activity) (human red blood cells) [µM] | IC50 at 20 h [8] [µM] | activity towards MRSA (MRSA ATCC 43300)
10 | 6.25 | ≤ 0.28 | > 36 | > 36 | ≤ 0.28 | > 36 | 100 | 2.3 | – | – | O=C(CC(c1ccccc1)c1ccccc1)NCCCNCCCCCCCNCCCNC(=O)CC(c1ccccc1)c1ccccc1.O=C(O)C(F)(F)F.O=C(O)C(F)(F)F [Compound 15c, N^1,N^7-Bis(3-(3,3-diphenylpropanamido)propyl)heptane-1,7-diaminium 2,2,2-trifluoroacetate] | >36.0 | > 36 | –
11 | 1.56 | ≤ 0.28 | 8.34 | > 33.4 | ≤ 0.26 | 1 | 200 | 2.1 | – | – | O=C(CC(c1ccccc1)c1ccccc1)NCCCNCCCCCCCCCCCCNCCCNC(=O)CC(c1ccccc1)c1ccccc1.O=C(O)C(F)(F)F.O=C(O)C(F)(F)F [Compound 15f, N^1,N^12-Bis(3-(3,3-diphenylpropanamido)propyl)dodecane-1,12-diaminium 2,2,2-trifluoroacetate] | 1.17 | 5.46 | –
12 | 12.5 | > 36.6 | > 36.6 | > 36.6 | ≤ 0.29 | > 36.6 | 100 | 4.6 | – | – | O=C(CC(c1ccccc1)c1ccccc1)NCCCNCCCCCCNCCCNC(=O)CC(c1ccccc1)c1ccccc1.O=C(O)C(F)(F)F.O=C(O)C(F)(F)F [Compound 15b, N^1,N^6-Bis(3-(3,3-diphenylpropanamido)propyl)hexane-1,6-diaminium 2,2,2-trifluoroacetate] | >36.6 | > 36.6 | –
13 | 3.13 | > 34.4 | > 34.4 | > 34.4 | ≤ 0.27 | 2.15 | 200 | ≤ 0.27 | – | – | O=C(CC(c1ccccc1)c1ccccc1)NCCCNCCCCCCCCCCNCCCNC(=O)CC(c1ccccc1)c1ccccc1.O=C(O)C(F)(F)F.O=C(O)C(F)(F)F [Compound 15e, N^1,N^10-Bis(3-(3,3-diphenylpropanamido)propyl)decane-1,10-diaminium 2,2,2-trifluoroacetate] | >34.4 | > 34.4 | –
